In ChEMBL document CHEMBL3797111, “Substituted Indazoles as Nav1.7 Blockers for the Treatment of Pain” (J Med Chem, 2016):

Key:
Type in all cases: ADME, organism-based
Details in all cases: in vivo
[1] = Bioavailability in Sprague-Dawley rat by HPLC-MS/MS analysis
Plasma [2] = assay: Plasma concentration in monoiodoacetate-induced osteoarthritis rat model at 10 mg/kg, po
Plasma [3] = assay: Plasma concentration in monoiodoacetate-induced osteoarthritis rat model at 30 mg/kg, po
Plasma [4] = assay: Plasma concentration in monoiodoacetate-induced osteoarthritis rat model at 3 mg/kg, po

Row | Structure (SMILES) | bioavailability [1] [%] | Cp (Plasma [2]) [µg/mL] | Cp (Plasma [3]) [µg/mL] | Cp (Plasma [4]) [µg/mL]
1 | Fc1ccc2c(c1)c(OCCn1ccnc1)nn2-c1ccccc1F | 28 | – | – | –
2 | O=C1NCCN1CCOc1nn(-c2ccc(F)cc2)c2ccc(F)cc12 | 54 | – | – | –
3 | CC(Oc1nn(-c2ccccc2F)c2ccc(F)cc12)C(=O)N1CCOCC1 (configuration not stated) | 27 | – | – | –
4 | O=c1[nH]ccn1CCOc1nn(-c2ccccc2F)c2ccc(F)cc12 | 35 | – | – | –
5 | O=C1NCCN1CCOc1nn(-c2ccc(F)cc2F)c2ccc(F)cc12 | 71 | – | – | –

Continued, values first:

Row | bioavailability [1] [%] | Cp (Plasma [2]) [µg/mL] | Cp (Plasma [3]) [µg/mL] | Cp (Plasma [4]) [µg/mL] | Structure (SMILES)
6 | 94 | – | – | – | O=C(CN1CCN(c2cccc3c2cnn3-c2ccccc2F)C1=O)N1CCCC1
7 | 84 | – | – | – | O=C1CN(c2cccc3c2cnn3-c2ccccc2F)CCN1CC(=O)N1CC[C@H](F)C1
8 | 83 | 6.8 | 10.5 | 2.7 | O=C(CN1CCN(c2cccc3c2cnn3-c2ccccc2F)C1=O)N1CC[C@H](F)C1
9 | 17 | 0.38 | 1.05 | 0.05 | O=C1NCCN1CCOc1nn(-c2ccccc2F)c2ccc(F)cc12
10 | 22 | – | – | – | O=C(COc1nn(-c2ccccc2F)c2ccc(F)cc12)N1CCOCC1
11 | 82 | – | – | – | CC(C)CC(=O)CN1CCN(c2cccc3c2cnn3-c2ccccc2F)C1=O
